Results reported in article PMC3723632, “A Multi-targeted Drug Candidate with Dual Anti-HIV and Anti-HSV Activity” (PLoS Pathogens, 2013).
Values after ≈ are worked out from the molar mass of the structure shown.

Legend:
PBMC = assay: Chemokine mRNA expression (RT-PCR) in PBMC; assay type: cell-based, human; conditions: 100 µg/ml, 4 h
Experimental: Figure 9 Expression of CC-chemokines, CCR5 and chemokine mRNA expression in PBMC cultures after drug treatment. Panel A: Production of CC-chemokines by PBMC and the effects of adefovir, tenofovir, and PMEO-DAPym on the expression of the CCR5 receptor. Freshly isolated PBMCs from four healthy donors were incubated for 24 h with medium only (NC) or with adefovir, tenofovir, or PMEO-DAPym. We collected the supernatants and measured the concentrations of MIP-1α (▪), MIP-1β (▴), and RANTES (•) using a Bioplex system (Bio-Rad, Hercules, CA). Shown are means ± SEM. The cells were also collected, and the expression of the CCR5 receptor (□) was measured with flow cytometry using the PE-labeled CCR5 (clone 2D7) mAb; it is shown as percentage of control (± SEM) from four independent representative experiments. Panel B: Chemokine mRNA expression upon PMEO-DAPym exposure to PBMC. RT-PCR analysis of MIP-1α, MIP-1β, RANTES, and GAPDH (control) expression in PBMC treated with 100-µg/ml PMEO-DAPym for 4 h. Similar results were obtained with PBMC from three different donors. Results from one representative donor are shown.
We isolated total RNA from approximately 10^6 PBMC using the RNeasy Mini Kit (QIAGEN, Hilden, Germany). To eliminate potential genomic DNA contamination, the samples were treated with DNase I (Roche). […]

HSV-1 (RV-174) = assay: Virus yield reduction assay in HEL cells, HSV-1 clinical isolate; conditions: for EC90: Human alphaherpesvirus 1, HEL
Experimental: (§1) These assays were carried out in HEL cell monolayers at different times post infection. […] After 2 h at 37°C, the cells were washed and medium containing different concentrations of PMEO-DAPym (in duplicate) was added. Following 24, 48, and 72 h of incubation, we released the viruses by freeze-thawing and then titrated them using a plaque assay in HEL cells.

HSV-2 (NS and RV-194) = assay: Virus yield reduction assay in HEL cells, HSV-2 clinical isolates; conditions: for EC90: Human alphaherpesvirus 2, HEL
Experimental: as §1

Nc1cc(OCCOCP(=O)(O)O)nc(N)n1 [PMEO-DAPym, 6-phosphonylmethoxyethoxy-2,4-diaminopyrimidine]
increase in MIP-1β and MIP-1α mRNA expression (PBMC): > 9 fold
EC90 (HSV-1 (RV-174); 24 h, RV-174, moi = 5x10^-3, 24 hours): < 1 µg/mL
EC90 (HSV-1 (RV-174); 24 h, RV-174, moi = 5x10^-4, 24 hours): 2.27 µg/mL (≈ 8.59 µM)
EC90 (HSV-1 (RV-174); 48 h, RV-174, moi = 5x10^-3, 48 hours): 1 µg/mL (≈ 3.79 µM)
EC90 (HSV-1 (RV-174); 48 h, RV-174, moi = 5x10^-4, 48 hours): < 1 µg/mL
EC90 (HSV-1 (RV-174); 72 h, RV-174, moi = 5x10^-3, 72 hours): 1 µg/mL (≈ 3.79 µM)
EC90 (HSV-1 (RV-174); 72 h, RV-174, moi = 5x10^-4, 72 hours): < 1 µg/mL
EC99 (HSV-1 (RV-174); RV-174, moi = 5x10^-3, 24 hours): 3.81 µg/mL
EC99 (HSV-1 (RV-174); RV-174, moi = 5x10^-3, 48 hours): 4.96 µg/mL
EC99 (HSV-1 (RV-174); RV-174, moi = 5x10^-3, 72 hours): 3.92 µg/mL
EC99 (HSV-1 (RV-174); RV-174, moi = 5x10^-4, 24 hours): 6.26 µg/mL
EC99 (HSV-1 (RV-174); RV-174, moi = 5x10^-4, 48 hours): 2.74 µg/mL
EC99 (HSV-1 (RV-174); RV-174, moi = 5x10^-4, 72 hours): 3.59 µg/mL
EC90 (HSV-2 (NS and RV-194); 24 h, Strain NS, moi = 1x10^-3, 24 hours): < 1 µg/mL
EC90 (HSV-2 (NS and RV-194); 24 h, Strain NS, moi = 1x10^-4, 24 hours): < 1 µg/mL
EC90 (HSV-2 (NS and RV-194); 24 h, Strain RV-194, moi = 1x10^-3, 24 hours): 2.08 µg/mL (≈ 7.87 µM)
EC90 (HSV-2 (NS and RV-194); 24 h, Strain RV-194, moi = 1x10^-4, 24 hours): < 1 µg/mL
EC90 (HSV-2 (NS and RV-194); 48 h, Strain NS, moi = 1x10^-3, 48 hours): < 1 µg/mL
EC90 (HSV-2 (NS and RV-194); 48 h, Strain NS, moi = 1x10^-4, 48 hours): < 1 µg/mL
EC90 (HSV-2 (NS and RV-194); 48 h, Strain RV-194, moi = 1x10^-3, 48 hours): < 1 µg/mL
EC90 (HSV-2 (NS and RV-194); 48 h, Strain RV-194, moi = 1x10^-4, 48 hours): < 1 µg/mL
EC90 (HSV-2 (NS and RV-194); 72 h, Strain NS, moi = 1x10^-3, 72 hours): 1.34 µg/mL (≈ 5.07 µM)
EC90 (HSV-2 (NS and RV-194); 72 h, Strain NS, moi = 1x10^-4, 72 hours): < 1 µg/mL
EC90 (HSV-2 (NS and RV-194); 72 h, Strain RV-194, moi = 1x10^-3, 72 hours): 1 µg/mL (≈ 3.79 µM)
EC90 (HSV-2 (NS and RV-194); 72 h, Strain RV-194, moi = 1x10^-4, 72 hours): < 1 µg/mL
EC99 (HSV-2 (NS and RV-194); Strain NS, moi = 1x10^-3, 24 hours): 3.0 µg/mL
EC99 (HSV-2 (NS and RV-194); Strain NS, moi = 1x10^-3, 48 hours): 3.28 µg/mL
EC99 (HSV-2 (NS and RV-194); Strain NS, moi = 1x10^-3, 72 hours): 3.63 µg/mL
EC99 (HSV-2 (NS and RV-194); Strain NS, moi = 1x10^-4, 24 hours): 3.6 µg/mL
EC99 (HSV-2 (NS and RV-194); Strain NS, moi = 1x10^-4, 48 hours): 1.0 µg/mL
EC99 (HSV-2 (NS and RV-194); Strain NS, moi = 1x10^-4, 72 hours): 2.3 µg/mL
EC99 (HSV-2 (NS and RV-194); Strain RV-194, moi = 1x10^-3, 24 hours): 7.15 µg/mL
EC99 (HSV-2 (NS and RV-194); Strain RV-194, moi = 1x10^-3, 48 hours): 1.0 µg/mL
EC99 (HSV-2 (NS and RV-194); Strain RV-194, moi = 1x10^-3, 72 hours): 3.58 µg/mL
EC99 (HSV-2 (NS and RV-194); Strain RV-194, moi = 1x10^-4, 24 hours): < 1 µg/mL
EC99 (HSV-2 (NS and RV-194); Strain RV-194, moi = 1x10^-4, 48 hours): 1.58 µg/mL
EC99 (HSV-2 (NS and RV-194); Strain RV-194, moi = 1x10^-4, 72 hours): 2.62 µg/mL
